{"source": "patent US7241581B2", "about": "“Methods of identifying compounds that modulate IL-4 receptor-mediated IgE synthesis utilizing a c-MYC protein” (Rigel Pharmaceuticals, Inc., priority 2002, dated 2007)", "key": {"[1]": {"tested_on": "endogenous germline ε promoter", "test": "TAQMAN assay of endogenous germline ε promoter transcription in A5T4 cells", "format": "cell-based, human", "settings": "relative expression units of +IL-4/+Dox to +IL-4/-Dox A5T4 cells; IL-4 60 U/ml, 3 days; average of 3 values", "description": "The ability of peptide BR10A1 wt to inhibit transcription of an endogenous germline ε promoter was confirmed using a TAQMAN® assay (Roche Molecular, Alameda, Calif.). Briefly, A5T4 cells were infected with retrovirus capable of expressing peptide BR10A1 wt (prepared as described above). The cells were sorted for BFP^+ to select for infected cells. Infected cells were divided into two populations. One population was exposed to Dox (10 ng/ml). Both populations were stimulated with IL-4 (60 U/ml). After 3 days, the cells were pelleted and the pellets assayed for ε promoter transcription using a TAQMAN assay performed as described in Applied Biosystems Protocol 4310299 (available at http:www.appliedbiosystems.com). The primers and probe, which are specific for the transcription product driven by the A5T4 endogenous ε promoter, were as follows (the probe was labeled at the 5′-end with Fam and at the 3′-end with Tamra): […]"}, "[2]": {"tested_on": "endogenous germline α promoter", "test": "TAQMAN assay of endogenous germline α promoter transcription in ST486 cells", "format": "cell-based", "settings": "ST486 cells stimulated with TGF-β 40 ng/ml; average of 3 values", "description": "The assay was similar to that described in the immediately preceding section, except that ST486 cells (ATCC # CRL-1647) engineered to express the tetracycline-regulated transactivator were infected and the infected cells were stimulated with TGF-β (40 ng/ml; Peprotech). The primers and probe, which are specific for the transcription product driven by the ST486 endogenous α promoter, were as follows (the probe was labeled at the 5′-end with Fam and at the 3′-end with Tamra): […]"}, "[3]": {"tested_on": "IL-4 induced germline ε transcription", "test": "Re-infection assay in naive A5T4 cells (BFP- vs BFP+ populations, GFP by FACS)", "format": "cell-based, human", "settings": "geometric mean GFP fluorescence of BFP- population divided by BFP+ population, IL-4 60 U/mL, 3 days", "description": "The ability of peptide BR10A1 wt to inhibit germline ε transcription was confirmed in naive cells. Briefly, Phoenix cells were transfected with a retroviral vector encoding a BFP-BR10A1 wt peptide fusion as described in WO 99/58663 and WO 97/27213. Naïve A5T4 cells were infected with the resultant virions and grown for 3 days. The infected cells were stimulated with IL-4 (60 U/mL) and, after 3 days, the cells were assessed by FACS for BFP and GFP. […] The BFP fluorescence data corresponding to the BFP^+ and BFP^− populations are provided in Panel A. The GFP fluorescence data corresponding to the BFP^+ and BFP^− populations are presented in Panel B. The reporter ratio for this purpose is determined as the geometric mean of the GFP fluorescence of the BFP^− population divided by the geometric mean of the GFP fluorescence of the BFP^+ population. The reporter ratio for the BR10A1 in this re-infection assay was 1.27."}, "[4]": {"tested_on": "IL-4 induced germline ε transcription", "test": "A5T4 reporter line screening of single cell clones (+Dox vs -Dox, IL-4 stimulated, GFP by FACS)", "format": "cell-based, human", "settings": "geometric mean GFP fluorescence +IL-4/+Dox to +IL-4/-Dox; IL-4 60 U/mL, Dox 10 ng/ml; library clone", "source_text": "Peptide BR10A1 wt was identified by screening a retroviral library of random peptide 20-mers for the ability to inhibit IL-4 induced germline ε transcription using the HBEGF2a/diphtheria dual reporter phenotypic screening system described in WO 01/31232. To construct the random library, A5T4 reporter cells (described in more detail below) were infected with an infectious retroviral library of random peptide 20-mers (prepared as described in WO 97/27213; see also WO 01/34806 at page 39, line 36 through page 40, line 19). The retroviral vector used includes a gene encoding blue fluorescent protein (BFP) fused upstream of the region encoding the random peptide via a linker region encoding an α-helical peptide linker (expression fusion product is referred to as “BFP-peptide”). Expression of the BFP-peptide product is controlled by a promoter sensitive to the tetracycline-regulated transactivator such that expression of the BFP-peptide is regulated by tetracycline (Tet) or doxycycline (Dox). See U.S. patent application Ser. No. 10/096,339, entitled “Methods and Compositions for Screening for Altered Cellular Phenotypes,” filed on Mar. 8, 2002. […]"}}}
{"sequence": "MQRRESCITRSVEEGWGLFYLGP (peptide encoded by random oligo-BR10A1wt) [wild-type peptide from random library, expressed in cells as BFP-peptide fusion]", "values": [{"measurement": "endogenous ε inhibition ratio", "setting": "[1]", "value": 2.18}, {"measurement": "endogenous α inhibition ratio", "setting": "[2]", "value": 0.87}, {"measurement": "Reporter Ratio", "setting": "[3]", "value": 1.27}, {"measurement": "Reporter Ratio", "setting": "[4]", "value": 1.26}]}
